From patent US6737383B1, “Herbicidal oxadiazolidines” (priority 1999, dated 2004)

What was measured:
bedstraw = assay: Test B pre/postemergence bedstraw; type: in vivo, Galium aparine
Summary of the method: (§1)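 Test chemicals in a non-phytotoxic solvent mixture with surfactant were sprayed preemergence onto planted seeds and postemergence onto plants 2 to 18 cm tall (1- to 4-leaf stage). After twelve to sixteen days in a greenhouse, injury was visually rated against untreated controls from 0 (no effect) to 10 (complete control).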

surinam grass = assay: Test B pre/postemergence surinam grass; type: in vivo, Brachiaria decumbens
Summary of the method: as §1

cocklebur = assay: Test B pre/postemergence cocklebur; type: in vivo, Xanthium strumarium
Summary of the method: as §1

corn = assay: Test B pre/postemergence corn; type: in vivo, Zea mays
Summary of the method: as §1

giant foxtail = assay: Test B pre/postemergence giant foxtail; type: in vivo, Setaria faberii
Summary of the method: as §1

pigweed = assay: Test B pre/postemergence pigweed; type: in vivo, Amaranthus retroflexus
Summary of the method: as §1

rape = assay: Test B pre/postemergence rape; type: in vivo, Brassica napus
Summary of the method: as §1

soybean = assay: Test B pre/postemergence soybean; type: in vivo, Glycine max
Summary of the method: as §1

sugar beet = assay: Test B pre/postemergence sugar beet; type: in vivo, Beta vulgaris; settings: for Plant response rating, Sugarbeets: Rate 250 g/ha
Summary of the method: as §1

velvetleaf = assay: Test B pre/postemergence velvetleaf; type: in vivo, Abutilon theophrasti; settings: for Plant response rating, Velvetleaf: Rate 250 g/ha
Summary of the method: as §1

wheat = assay: Test B pre/postemergence wheat; type: in vivo, Triticum aestivum; settings: for Plant response rating, Wheat: Rate 250 g/ha
Summary of the method: as §1

wild oat = assay: Test B pre/postemergence wild oat; type: in vivo, Avena fatua; settings: for Plant response rating, Wild oats: Rate 250 g/ha
Summary of the method: as §1

purple nutsedge = assay: Test B pre/postemergence purple nutsedge; type: in vivo, Cyperus rotundus
Summary of the method: as §1

rice = assay: Test B flood test rice; type: in vivo, Oryza sativa
Summary of the method: (§2)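 Read-out is a visual response score from 0 (no effect) to 10 (complete control), assigned by comparison with untreated controls. Treatment was applied at the 2-leaf stage, and plants stayed in the greenhouse for twelve to sixteen days before scoring.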

smallflower flatsedge = assay: Test B flood test smallflower flatsedge; type: in vivo, Cyperus difformis
Summary of the method: as §2

duck salad = assay: Test B flood test duck salad; type: in vivo, Heteranthera limosa
Summary of the method: as §2

[1] = Postemergence, Rate 62 g/ha, scale 0 to 10, 0 is no effect, 10 is complete control
[2] = Postemergence, Rate 250 g/ha, scale 0 to 10, 0 no effect, 10 complete control
[3] = Preemergence, Rate 62 g/ha, scale 0 to 10 (0 no effect, 10 complete control)
[4] = Preemergence, Rate 125 g/ha, scale 0 to 10 (0 no effect, 10 complete control)
[5] = Preemergence, Rate 250 g/ha, scale of 0 to 10 where 0 is no effect and 10 is complete control
[6] = Preemergence, Rate 500 g/ha, scale 0 to 10 (0 no effect, 10 complete control)
[7] = Rate 125 g/ha, Postemergence, scale 0 to 10, 0 no effect, 10 complete control
[8] = Rate 500 g/ha, Postemergence, scale 0 to 10, 0 no effect, 10 complete control
[9] = Postemergence, Rate 125 g/ha, scale of 0 to 10 where 0 is no effect and 10 is complete control
[10] = Rate 62 g/ha, Postemergence, scale of 0 to 10 where 0 is no effect and 10 is complete control
[11] = Rate 250 g/ha, Postemergence, scale 0 to 10, 0 is no effect, 10 is complete control
[12] = Preemergence, Rate 125 g/ha, 0 is no effect, 10 is complete control
[13] = Preemergence, scale of 0 to 10 where 0 is no effect and 10 is complete control
[14] = Postemergence, scale 0 to 10, 0 is no effect, 10 is complete control
[15] = Postemergence (flood test species), Rate 125 g/ha, scale of 0 to 10 where 0 is no effect and 10 is complete control
[16] = Rate 62 g/ha, Postemergence section, flood test species, scale of 0 to 10 where 0 is no effect and 10 is complete control
[17] = Rate 250 g/ha, Postemergence (flood test), scale 0 to 10, 0 is no effect, 10 is complete control
[18] = Rate 250 g/ha, headed Pre-emergence (flood test species), scale 0 to 10 (0 no effect, 10 complete control)
[19] = Rate 500 g/ha, headed Pre-emergence (flood test species), scale 0 to 10 (0 no effect, 10 complete control)
[20] = Rate 500 g/ha, listed under Postemergence (flood test species), scale 0 to 10, 0 no effect, 10 complete control
[21] = Rate 1000 g/ha, Pre-emergence (as headed), scale 0 to 10
[22] = Rate 2000 g/ha, Pre-emergence (as headed), scale 0 to 10

**Q.** What does the source list for `CCn1c(=O)on(C(=O)N(c2ccc(Cl)cc2)C(C)C)c1=O` [Compound 108]?
**A.** Bedstraw plant response rating (bedstraw; [1]): 0; Bedstraw plant response rating (bedstraw; [2]): 2; Bedstraw plant response rating (bedstraw; [3]): 0; Plant response rating, Bedstraw (bedstraw; [4]): 5; Plant response rating, Bedstraw (bedstraw; [5]): 8; Bedstraw plant response rating (bedstraw; [6]): 8; Bedstraw plant response rating (bedstraw; [7]): 0; Bedstraw plant response rating (bedstraw; [8]): 6; B. signalgrass plant response rating (surinam grass; [1]): 0; B. signalgrass plant response rating (surinam grass; [2]): 3; B. signalgrass plant response rating (surinam grass; [3]): 4; Plant response rating, B. signalgrass (surinam grass; [4]): 6; Plant response rating, B. signalgrass (surinam grass; [5]): 7; B. signalgrass plant response rating (surinam grass; [6]): 9; B. signalgrass plant response rating (surinam grass; [7]): 3; B. signalgrass plant response rating (surinam grass; Rate 500 g/ha, Postemergence, scale of 0 to 10 where 0 is no effect and 10 is complete control): 6; Cocklebur plant response rating (cocklebur; [9]): 0; Cocklebur plant response rating (cocklebur; [2]): 0; Plant response rating, Cocklebur (cocklebur; [4]): 0; Plant response rating, Cocklebur (cocklebur; [5]): 0; Cocklebur plant response rating (cocklebur; [6]): 0; Cocklebur plant response rating (cocklebur; [10]): 0; Cocklebur plant response rating (cocklebur; [8]): 2; Corn plant response rating (corn; [9]): 0; Corn plant response rating (corn; [2]): 0; Corn plant response rating (corn; [3]): 0; Plant response rating, Corn (corn; [4]): 0; Plant response rating, Corn (corn; [5]): 6; Corn plant response rating (corn; [6]): 9; Corn plant response rating (corn; [10]): 0; Corn plant response rating (corn; [8]): 0; Giant foxtail plant response rating (giant foxtail; [9]): 7; Giant foxtail plant response rating (giant foxtail; [2]): 8; Giant foxtail plant response rating (giant foxtail; [3]): 10; Plant response rating, Giant foxtail (giant foxtail; [4]): 10; Plant response rating, Giant foxtail (giant foxtail; [5]): 10; Giant foxtail plant response rating (giant foxtail; [6]): 10; Giant foxtail plant response rating (giant foxtail; [10]): 5; Giant foxtail plant response rating (giant foxtail; [8]): 8; Redroot pigweed plant response rating (pigweed; [9]): 0; Plant response rating, Redroot pigweed (pigweed; [4]): 3; Plant response rating, Redroot pigweed (pigweed; [5]): 10; Redroot pigweed plant response rating (pigweed; [6]): 10; Redroot pigweed plant response rating (pigweed; [10]): 0; Plant response rating, Redroot pigweed (pigweed; [11]): 0; Redroot pigweed plant response rating (pigweed; [8]): 3; Rape plant response rating (rape; [9]): 0; Rape plant response rating (rape; [2]): 0; Rape plant response rating (rape; [3]): 0; Plant response rating, Rape (rape; [4]): 0; Plant response rating, Rape (rape; [5]): 7; Rape plant response rating (rape; [6]): 9; Rape plant response rating (rape; [10]): 0; Rape plant response rating (rape; [8]): 2; Soybean plant response rating (soybean; [9]): 3; Soybean plant response rating (soybean; [3]): 0; Plant response rating, Soybean (soybean; [4]): 0; Plant response rating, Soybean (soybean; [5]): 0; Soybean plant response rating (soybean; [6]): 2; Soybean plant response rating (soybean; [10]): 1; Plant response rating, Soybean (soybean; [11]): 5; Soybean plant response rating (soybean; [8]): 5; Sugarbeets plant response rating (sugar beet; [9]): 0; Sugarbeets plant response rating (sugar beet; [3]): 3; Sugarbeets plant response rating (0 to 10 scale) (sugar beet; [12]): 3; Plant response rating, Sugarbeets (sugar beet; [13]): 4; Sugarbeets plant response rating (sugar beet; [6]): 8; Sugarbeets plant response rating (sugar beet; [10]): 0; Plant response rating, Sugarbeets (sugar beet; [14]): 2; Sugarbeets plant response rating (sugar beet; [8]): 2; Velvetleaf plant response rating (velvetleaf; [9]): 4; Velvetleaf plant response rating (velvetleaf; [3]): 3; Velvetleaf plant response rating (0 to 10 scale) (velvetleaf; [12]): 4; Plant response rating, Velvetleaf (velvetleaf; [13]): 4; Velvetleaf plant response rating (velvetleaf; [6]): 5; Velvetleaf plant response rating (velvetleaf; [10]): 2; Plant response rating, Velvetleaf (velvetleaf; [14]): 4; Velvetleaf plant response rating (velvetleaf; [8]): 5; Wheat plant response rating (wheat; [9]): 0; Wheat plant response rating (wheat; [3]): 0; Wheat plant response rating (0 to 10 scale) (wheat; [12]): 0; Plant response rating, Wheat (wheat; [13]): 2; Wheat plant response rating (wheat; [6]): 3; Wheat plant response rating (wheat; [10]): 0; Plant response rating, Wheat (wheat; [14]): 0; Wheat plant response rating (wheat; [8]): 2; Wild oats plant response rating (wild oat; [9]): 0; Wild oats plant response rating (wild oat; [3]): 9; Wild oats plant response rating (0 to 10 scale) (wild oat; [12]): 9; Plant response rating, Wild oats (wild oat; [13]): 9; Wild oats plant response rating (wild oat; [6]): 9; Wild oats plant response rating (wild oat; [10]): 0; Plant response rating, Wild oats (wild oat; [14]): 3; Wild oats plant response rating (wild oat; [8]): 3; Nutsedge plant response rating (purple nutsedge; [9]): 3; Nutsedge plant response rating (purple nutsedge; [2]): 4; Nutsedge plant response rating (purple nutsedge; [3]): 0; Plant response rating, Nutsedge (purple nutsedge; [4]): 0; Plant response rating, Nutsedge (purple nutsedge; [5]): 0; Nutsedge plant response rating (purple nutsedge; [6]): 0; Nutsedge plant response rating (purple nutsedge; [10]): 0; Nutsedge plant response rating (purple nutsedge; [8]): 4; Rice plant response rating (rice; [15]): 0; Rice plant response rating (rice; [16]): 0; Plant response rating, Rice (rice; [17]): 0; Rice plant response rating (rice; [18]): 0; Plant response rating, Rice (rice; [19]): 0; Rice plant response rating (rice; [20]): 0; Rice plant response rating (rice; [21]): 0; Rice plant response rating (rice; [22]): 0; S. Flatsedge plant response rating (smallflower flatsedge; [15]): 0; S. Flatsedge plant response rating (smallflower flatsedge; Pre-emergence, Rate 1000 g/ha, scale 0 to 10 (0 no effect, 10 complete control)): 0; S. Flatsedge plant response rating (smallflower flatsedge; [16]): 0; Plant response rating, S. Flatsedge (smallflower flatsedge; [17]): 0; S. Flatsedge plant response rating (smallflower flatsedge; [18]): 0; Plant response rating, S. Flatsedge (smallflower flatsedge; [19]): 0; S. Flatsedge plant response rating (smallflower flatsedge; [20]): 0; S. Flatsedge plant response rating (smallflower flatsedge; [22]): 0; Ducksalad plant response rating (duck salad; [15]): 0; Ducksalad plant response rating (duck salad; [16]): 0; Ducksalad plant response rating (duck salad; [18]): 0; Plant response rating, Ducksalad (duck salad; [19]): 0; Ducksalad plant response rating (duck salad; [20]): 0; Ducksalad plant response rating (duck salad; [21]): 0; Ducksalad plant response rating (duck salad; [22]): 0; Ducksalad plant response rating (duck salad; flood test, listed under Postemergence, Rate 250 g/ha, scale 0 to 10, 0 no effect, 10 complete control): 0
